Results from patent EP4745196A1, “RESIN COMPOSITION” (LG Chem, Ltd., priority 2023, dated 2025).

Key:
[1] = endothermic substance; cited from earlier work
[2] = Measurement of pyrolysis temperature by differential scanning calorimeter; format: physicochemical; details: endothermic substance; DSC, heating rate 10°C/min, temperature at maximum heat flow
Experimental: The endothermic substance may have a pyrolysis temperature of 50°C or more. The pyrolysis temperature of the endothermic substance may be 300°C or less. The pyrolysis temperature may also be referred to as a temperature at which the endothermic substance undergoes an endothermic reaction (endothermic reaction temperature). The pyrolysis may mean that a material is chemically decomposed into a simpler material when heat has been applied thereto. The pyrolysis temperature may mean a temperature at which the pyrolysis occurs. The pyrolysis temperature of the endothermic substance may be 300°C or less, 280°C or less, 260°C or less, 240°C or less, 220°C or less, 200°C or less, 180°C or less, 160°C or less, 140°C or less, 120°C or less, or 100°C or less. The pyrolysis temperature of the endothermic substance may be specifically 50°C or more, 60°C or more, 70°C or more, 80°C or more, 90°C or more, 100°C or more, 120°C or more, 140°C or more, 160°C or more, or 180°C or more. When the endothermic substance is heated to the pyrolysis temperature, it may be decomposed into components constituting the endothermic substance through endotherm. When the pyrolysis temperature of the endothermic substance is within the range, there is no or little endothermic reaction at a normal operating temperature of the battery, and if the thermal runaway of the battery occurs, a cooling effect may be provided to the ignited battery cell through the endothermic reaction (e.g., pyrolysis) of the endothermic substance, and it may be advantageous in terms of delaying thermal transfer to adjacent battery cells. The pyrolysis temperature may be a value measured while increasing the temperature at a rate of 10°C/min using a differential scanning calorimeter (DSC Q2000, TA Corporation). From the differential scanning calorimeter, a graph may be obtained in which the x-axis is temperatures (°C) and the y-axis is heat flows (W/g), and in the graph, the temperature at the point where a heat flow (W/g) value, for example, an absolute value of a heat flow (W/g) is maximum may be set as the pyrolysis temperature.
For endothermic substances used in Examples and Comparative Examples, pyrolysis temperatures were measured while increasing the temperature at a rate of 10°C/min using a differential scanning calorimeter (DSC Q2000, TA Corporation), and the results were described in Table 1. Specifically, 0.2 to 0.5 mg of a sample was placed in a crucible of the differential scanning calorimeter, and then a lid with a single hole penetrated with a punching needle was covered thereon. In a state where the crucible was placed in the center of a press, and a plunger was moved downward by turning a lever until no pressure was further applied downward, the crucible and lid were placed in the differential scanning calorimeter equipment, and a thermal analysis was performed. From the differential scanning calorimeter, a graph with temperature (°C) on the x-axis and heat flow (W/g) on the y-axis could be obtained, and the temperature at the point where the heat flow (W/g) value is maximum in the graph was defined as the pyrolysis temperature.

[3] = Measurement of solubility in water; format: physicochemical; details: endothermic substance; 20°C, added by 1g to 100 ml of water until precipitate
Experimental: The endothermic substance may be a water-soluble substance.
Specifically, while the samples were each added by 1g to 100 ml of water at 20°C, the weight of the sample before a precipitate occurred was measured. The presence of the precipitate was visually observed; if no precipitate has occurred, it is observed transparently.

| SMILES | Thermal conductivity [1] | Pyrolysis temperature [2] | Solubility in water [3] |
| --- | --- | --- | --- |
| O.O.O.O.O.O.O.O.O.O.O.O.O.O.O.O.O.O.O=S(=O)([O-])[O-].O=S(=O)([O-])[O-].O=S(=O)([O-])[O-].[Al+3].[Al+3] [Al2(SO4)3·18H2O] | 0.24~0.31 W/mK | 102 °C |  |
| [O]=[Al][O][Al]=[O] [Al2O3] | 18 W/mK | 2000 °C | 0 g/100ml |
| [OH][Al]([OH])[OH] [Al(OH)3] | 26 W/mK | 297 °C |  |
| OB(O)O [Example H3BO3, H3BO3] | 1 or less W/mK | 136 °C |  |
| O.O.O.O.O.O.O.O.O.O.O.O.O=S(=O)([O-])[O-].O=S(=O)([O-])[O-].[Al+3].[K+] [KAl(SO4)2·12H2O] | 0.55 W/mK | 90 °C |  |
| [Cl-].[K+] [KCl] | 6.53 W/mK | 770 °C | ≥ 30 g/100ml |
| [Mg+2].[OH-].[OH-] [Mg(OH)2] | 42~60 W/mK | 330 °C |  |
| [Cl-].[Cl-].[Mg+2] [MgCl2] | 0.5 W/mK | 714 °C |  |
| O.O.O.O.O.O.[Cl-].[Cl-].[Mg+2] [MgCl2·6H2O] | 0.15~0.96 W/mK | 107 °C |  |
| [O]=[Mg] [MgO] | 30 W/mK | 2800 °C | 0 g/100ml |
| [Cl-].[Na+] [NaCl] | 3.13~3.87 W/mK | 801 °C |  |
